Data as given in ChEMBL document CHEMBL1156471, “Targeting host cell furin proprotein convertases as a therapeutic strategy against bacterial toxins and viral pathogens” (J Biol Chem, 2007).
Non-standard residues stand in square brackets, D forms with d. Residues, ends and D or L forms follow the SMILES beside them. Nle = CCCC[C@H](N)C(=O)O; Ac5c = NC1(C(=O)O)CCCC1; Ahx = NCCCCCC(=O)O; βAla = NCCC(=O)O; Sar = CNCC(=O)O

The molecules below were run against Furin (Homo sapiens, UniProt P09958).
Sequence of Furin (P09958 whole entry): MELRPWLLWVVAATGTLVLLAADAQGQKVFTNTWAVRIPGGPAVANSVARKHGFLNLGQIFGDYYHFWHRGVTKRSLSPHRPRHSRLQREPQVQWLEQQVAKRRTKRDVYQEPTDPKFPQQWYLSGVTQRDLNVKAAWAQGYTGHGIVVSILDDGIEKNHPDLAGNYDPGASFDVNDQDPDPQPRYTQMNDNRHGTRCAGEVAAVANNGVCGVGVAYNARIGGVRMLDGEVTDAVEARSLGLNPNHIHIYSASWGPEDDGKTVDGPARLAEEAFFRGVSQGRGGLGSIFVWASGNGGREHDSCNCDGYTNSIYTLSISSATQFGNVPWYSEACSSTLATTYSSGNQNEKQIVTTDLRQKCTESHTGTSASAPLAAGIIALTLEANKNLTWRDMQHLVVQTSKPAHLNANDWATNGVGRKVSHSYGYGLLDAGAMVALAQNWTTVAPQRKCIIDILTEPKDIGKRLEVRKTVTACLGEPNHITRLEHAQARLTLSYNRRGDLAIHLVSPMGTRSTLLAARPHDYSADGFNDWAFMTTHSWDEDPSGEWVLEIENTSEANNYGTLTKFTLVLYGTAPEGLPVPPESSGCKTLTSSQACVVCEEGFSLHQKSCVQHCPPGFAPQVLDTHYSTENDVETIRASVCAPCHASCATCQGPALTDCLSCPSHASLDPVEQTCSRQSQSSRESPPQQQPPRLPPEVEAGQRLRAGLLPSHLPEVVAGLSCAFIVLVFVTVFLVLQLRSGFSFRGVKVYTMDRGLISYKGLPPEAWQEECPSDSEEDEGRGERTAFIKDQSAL

| Molecule | Ki [µM] |
| --- | --- |
| C[C@H](N)C(=O)N[C@@H](C)C(=O)N[C@@H](CCCN=C(N)N)C(=O)N[C@@H](CCC(=O)O)C(=O)N[C@@H](CCCN=C(N)N)C(=O)N[C@@H](CCCN=C(N)N)C(=O)N[C@@H](CCCN=C(N)N)C(=O)N[C@@H](CCCCN)C(=O)N[C@@H](CCCCN)C(=O)N[C@@H](CCCN=C(N)N)C(=O)N(C)CC(=O)O (H-AARERRRKKR[Sar]-OH) | > 0.1 |
| C[C@H](N)C(=O)N1CCC[C@H]1C(=O)N[C@@H](CCCNC(=N)N)C(=O)N[C@@H](CCC(=O)O)C(=O)N[C@@H](CCCNC(=N)N)C(=O)N[C@@H](CCCNC(=N)N)C(=O)N[C@@H](CCCNC(=N)N)C(=O)N[C@@H](CCCCN)C(=O)N[C@@H](CCCCN)C(=O)N[C@@H](CCCNC(=N)N)C(=O)N(C)CC(=O)O (H-APRERRRKKR[Sar]-OH) | > 0.1 |
| C[C@H](NC(=O)[C@H](C)NC(=O)[C@@H](N)[C@@H](C)O)C(=O)N[C@@H](CCC(=O)O)C(=O)N[C@@H](CCCNC(=N)N)C(=O)N[C@@H](CCCNC(=N)N)C(=O)N[C@@H](CCCNC(=N)N)C(=O)N[C@@H](CCCCN)C(=O)N[C@@H](CCCCN)C(=O)N[C@@H](CCCNC(=N)N)C(=O)N(C)CC(=O)O (H-TAAERRRKKR[Sar]-OH) | > 0.1 |
| C[C@H](NC(=O)[C@@H](N)[C@@H](C)O)C(=O)N[C@@H](CCCNC(=N)N)C(=O)N[C@@H](CCC(=O)O)C(=O)N[C@@H](CCCNC(=N)N)C(=O)N[C@@H](CCCNC(=N)N)C(=O)N[C@@H](CCCNC(=N)N)C(=O)N[C@@H](CCCCN)C(=O)N[C@@H](CCCCN)C(=O)N[C@@H](CCCNC(=N)N)C(=O)N(C)CC(=O)O (H-TARERRRKKR[Sar]-OH) | > 0.1 |
| C[C@H](NC(=O)[C@H](C)NC(=O)[C@@H]1CCCN1C(=O)[C@@H](N)[C@@H](C)O)C(=O)N[C@@H](C)C(=O)N[C@@H](CCCNC(=N)N)C(=O)N[C@@H](CCCNC(=N)N)C(=O)N[C@@H](CCCCN)C(=O)N[C@@H](CCCCN)C(=O)N[C@@H](CCCNC(=N)N)C(=O)N(C)CC(=O)O (H-TPAAARRKKR[Sar]-OH) | > 0.1 |
| C[C@H](NC(=O)[C@H](C)NC(=O)[C@@H]1CCCN1C(=O)[C@@H](N)[C@@H](C)O)C(=O)N[C@@H](CCCN=C(N)N)C(=O)N[C@@H](CCCN=C(N)N)C(=O)N[C@@H](CCCN=C(N)N)C(=O)N[C@@H](CCCCN)C(=O)N[C@@H](CCCCN)C(=O)N[C@@H](CCCN=C(N)N)C(=O)N(C)CC(=O)O (H-TPAARRRKKR[Sar]-OH) | > 0.1 |
| C[C@H](NC(=O)[C@@H]1CCCN1C(=O)[C@@H](N)[C@@H](C)O)C(=O)N[C@@H](CCC(=O)O)C(=O)N[C@@H](CCCNC(=N)N)C(=O)N[C@@H](CCCNC(=N)N)C(=O)N[C@@H](CCCNC(=N)N)C(=O)N[C@@H](CCCCN)C(=O)N[C@@H](CCCCN)C(=O)N[C@@H](CCCNC(=N)N)C(=O)N(C)CC(=O)O (H-TPAERRRKKR[Sar]-OH) | > 0.1 |
| CSC[C@H](NC(=O)[C@H](CCCNC(=N)N)NC(=O)[C@H](CCCCN)NC(=O)[C@H](CCCCN)NC(=O)[C@H](CCCNC(=N)N)NC(=O)[C@H](CCCNC(=N)N)NC(=O)[C@H](CCCNC(=N)N)NC(=O)[C@H](C)NC(=O)[C@H](CCCNC(=N)N)NC(=O)[C@H](CCC(N)=O)NC(=O)[C@@H]1CCCN1C(=O)[C@@H](N)[C@@H](C)O)C(=O)O (H-TPQRARRRKKRC(Me)-OH) | 0.093 |
| C[C@H](NC(=O)[C@H](CCCNC(=N)N)NC(=O)[C@H](CCC(N)=O)NC(=O)[C@@H]1CCCN1C(=O)[C@@H](N)[C@@H](C)O)C(=O)N[C@@H](CCCNC(=N)N)C(=O)N[C@@H](CCCNC(=N)N)C(=O)N[C@@H](CCCNC(=N)N)C(=O)N[C@@H](CCCCN)C(=O)N[C@@H](CCCCN)C(=O)N[C@@H](CCCNC(=N)N)C(=O)NC1(C(=O)O)CCCC1 (H-TPQRARRRKKR[Ac5c]-OH) | > 0.1 |
| C[C@H](NC(=O)[C@H](CCCNC(=N)N)NC(=O)[C@H](CCC(N)=O)NC(=O)[C@@H]1CCCN1C(=O)[C@@H](N)[C@@H](C)O)C(=O)N[C@@H](CCCNC(=N)N)C(=O)N[C@@H](CCCNC(=N)N)C(=O)N[C@@H](CCCNC(=N)N)C(=O)N[C@@H](CCCCN)C(=O)N[C@@H](CCCCN)C(=O)N[C@@H](CCCNC(=N)N)C(=O)NCCCCCC(=O)O (H-TPQRARRRKKR[Ahx]-OH) | > 0.1 |
| CCCC[C@H](NC(=O)[C@H](CCCN=C(N)N)NC(=O)[C@H](CCCCN)NC(=O)[C@H](CCCCN)NC(=O)[C@H](CCCN=C(N)N)NC(=O)[C@H](CCCN=C(N)N)NC(=O)[C@H](CCCN=C(N)N)NC(=O)[C@H](C)NC(=O)[C@H](CCCN=C(N)N)NC(=O)[C@H](CCC(N)=O)NC(=O)[C@@H]1CCCN1C(=O)[C@@H](N)[C@@H](C)O)C(=O)O (H-TPQRARRRKKR[Nle]-OH) | > 0.1 |
| C[C@H](NC(=O)[C@H](CCCN=C(N)N)NC(=O)[C@H](CCC(N)=O)NC(=O)[C@@H]1CCCN1C(=O)[C@@H](N)[C@@H](C)O)C(=O)N[C@@H](CCCN=C(N)N)C(=O)N[C@@H](CCCN=C(N)N)C(=O)N[C@@H](CCCN=C(N)N)C(=O)N[C@@H](CCCCN)C(=O)N[C@@H](CCCCN)C(=O)N[C@@H](CCCN=C(N)N)C(=O)NCCC(=O)O (H-TPQRARRRKKR[βAla]-OH) | > 0.1 |
| C[C@H](NC(=O)[C@H](C)NC(=O)[C@H](CCCNC(=N)N)NC(=O)[C@@H]1CCCN1C(=O)[C@@H](N)[C@@H](C)O)C(=O)N[C@@H](CCCNC(=N)N)C(=O)N[C@@H](CCCNC(=N)N)C(=O)N[C@@H](CCCCN)C(=O)N[C@@H](CCCCN)C(=O)N[C@@H](CCCNC(=N)N)C(=O)N(C)CC(=O)O (H-TPRAARRKKR[Sar]-OH) | > 0.1 |
| C[C@H](NC(=O)[C@H](C)NC(=O)[C@H](CCC(=O)O)NC(=O)[C@H](CCCNC(=N)N)NC(=O)[C@@H]1CCCN1C(=O)[C@@H](N)[C@@H](C)O)C(=O)N[C@@H](C)C(=O)N[C@@H](CCCCN)C(=O)N[C@@H](CCCCN)C(=O)N[C@@H](CCCNC(=N)N)C(=O)N(C)CC(=O)O (H-TPREAAAKKR[Sar]-OH) | > 0.1 |
| C[C@H](NC(=O)[C@H](C)NC(=O)[C@H](CCC(=O)O)NC(=O)[C@H](CCCN=C(N)N)NC(=O)[C@@H]1CCCN1C(=O)[C@@H](N)[C@@H](C)O)C(=O)N[C@@H](CCCN=C(N)N)C(=O)N[C@@H](CCCCN)C(=O)N[C@@H](CCCCN)C(=O)N[C@@H](CCCN=C(N)N)C(=O)N(C)CC(=O)O (H-TPREAARKKR[Sar]-OH) | > 0.1 |
| C[C@H](NC(=O)[C@H](CCC(=O)O)NC(=O)[C@H](CCCNC(=N)N)NC(=O)[C@@H]1CCCN1C(=O)[C@@H](N)[C@@H](C)O)C(=O)N[C@@H](CCCNC(=N)N)C(=O)N[C@@H](CCCNC(=N)N)C(=O)N[C@@H](CCCCN)C(=O)N[C@@H](CCCCN)C(=O)N[C@@H](CCCNC(=N)N)C(=O)N(C)CC(=O)O (H-TPREARRKKR[Sar]-OH) | > 0.1 |
| C[C@H](NC(=O)[C@H](C)NC(=O)[C@H](CCCNC(=N)N)NC(=O)[C@H](CCC(=O)O)NC(=O)[C@H](CCCNC(=N)N)NC(=O)[C@@H]1CCCN1C(=O)[C@@H](N)[C@@H](C)O)C(=O)N[C@@H](CCCCN)C(=O)N[C@@H](CCCCN)C(=O)N[C@@H](CCCNC(=N)N)C(=O)N(C)CC(=O)O (H-TPRERAAKKR[Sar]-OH) | > 0.1 |
| C[C@H](NC(=O)[C@H](CCCNC(=N)N)NC(=O)[C@H](CCC(=O)O)NC(=O)[C@H](CCCNC(=N)N)NC(=O)[C@@H]1CCCN1C(=O)[C@@H](N)[C@@H](C)O)C(=O)N[C@@H](CCCNC(=N)N)C(=O)N[C@@H](CCCCN)C(=O)N[C@@H](CCCCN)C(=O)N[C@@H](CCCNC(=N)N)C(=O)N(C)CC(=O)O (H-TPRERARKKR[Sar]-OH) | > 0.1 |

| Molecule | Ki [µM] |
| --- | --- |
| C[C@H](NC(=O)[C@H](C)NC(=O)[C@H](CCCNC(=N)N)NC(=O)[C@H](CCCNC(=N)N)NC(=O)[C@H](CCC(=O)O)NC(=O)[C@H](CCCNC(=N)N)NC(=O)[C@@H]1CCCN1C(=O)[C@@H](N)[C@@H](C)O)C(=O)N[C@@H](CCCCN)C(=O)N[C@@H](CCCNC(=N)N)C(=O)N(C)CC(=O)O (H-TPRERRAAKR[Sar]-OH) | > 0.1 |
| C[C@H](NC(=O)[C@H](CCCNC(=N)N)NC(=O)[C@H](CCCNC(=N)N)NC(=O)[C@H](CCC(=O)O)NC(=O)[C@H](CCCNC(=N)N)NC(=O)[C@@H]1CCCN1C(=O)[C@@H](N)[C@@H](C)O)C(=O)N[C@@H](CCCCN)C(=O)N[C@@H](CCCCN)C(=O)N[C@@H](CCCNC(=N)N)C(=O)N(C)CC(=O)O (H-TPRERRAKKR[Sar]-OH) | > 0.1 |
| C[C@H](NC(=O)[C@H](CCCNC(=N)N)NC(=O)[C@H](CCCNC(=N)N)NC(=O)[C@H](CCCNC(=N)N)NC(=O)[C@H](CCC(=O)O)NC(=O)[C@H](CCCNC(=N)N)NC(=O)[C@@H]1CCCN1C(=O)[C@@H](N)[C@@H](C)O)C(=O)N[C@@H](CCCCN)C(=O)N[C@@H](CCCNC(=N)N)C(=O)N(C)CC(=O)O (H-TPRERRRAKR[Sar]-OH) | > 0.1 |
| C[C@H](NC(=O)[C@H](CCCCN)NC(=O)[C@H](CCCNC(=N)N)NC(=O)[C@H](CCCNC(=N)N)NC(=O)[C@H](CCCNC(=N)N)NC(=O)[C@H](CCC(=O)O)NC(=O)[C@H](CCCNC(=N)N)NC(=O)[C@@H]1CCCN1C(=O)[C@@H](N)[C@@H](C)O)C(=O)N[C@@H](C)C(=O)N(C)CC(=O)O (H-TPRERRRKAA[Sar]-OH) | > 0.1 |
| C[C@H](NC(=O)[C@H](CCCCN)NC(=O)[C@H](CCCNC(=N)N)NC(=O)[C@H](CCCNC(=N)N)NC(=O)[C@H](CCCNC(=N)N)NC(=O)[C@H](CCC(=O)O)NC(=O)[C@H](CCCNC(=N)N)NC(=O)[C@@H]1CCCN1C(=O)[C@@H](N)[C@@H](C)O)C(=O)N[C@@H](CCCNC(=N)N)C(=O)N(C)CC(=O)O (H-TPRERRRKAR[Sar]-OH) | > 0.1 |
| C[C@H](NC(=O)[C@H](CCCCN)NC(=O)[C@H](CCCCN)NC(=O)[C@H](CCCN=C(N)N)NC(=O)[C@H](CCCN=C(N)N)NC(=O)[C@H](CCCN=C(N)N)NC(=O)[C@H](CCC(=O)O)NC(=O)[C@H](CCCN=C(N)N)NC(=O)[C@@H]1CCCN1C(=O)[C@@H](N)[C@@H](C)O)C(=O)N(C)CC(=O)O (H-TPRERRRKKA[Sar]-OH) | > 0.1 |
| C[C@@H](O)[C@H](N)C(=O)N1CCC[C@H]1C(=O)N[C@@H](CCCNC(=N)N)C(=O)N[C@@H](CCC(=O)O)C(=O)N[C@@H](CCCNC(=N)N)C(=O)N[C@@H](CCCNC(=N)N)C(=O)N[C@@H](CCCNC(=N)N)C(=O)N[C@@H](CCCCN)C(=O)N[C@@H](CCCCN)C(=O)N[C@@H](CCCNC(=N)N)C(=O)N(C)CC(=O)O (H-TPRERRRKKR[Sar]-OH) | > 0.1 |
| H-AAAERRRKKR-OH | > 0.1 |
| H-AAAERRRKKRG-OH | > 0.1 |
| H-AAAERRRKKRV-OH | > 0.1 |
| H-AARERRRKKR-OH | > 0.1 |
| H-AARERRRKKRG-OH | > 0.1 |
| H-AARERRRKKRV-OH | > 0.1 |
| H-APRERRRKKR-OH | > 0.1 |
| H-APRERRRKKRG-OH | > 0.1 |
| H-APRERRRKKRV-OH | > 0.1 |
| H-GAGAGATPQRARRRKKRW-OH | 0.127 |
